The source of these data is patent US8476051B2, “Thermostable alcohol dehydrogenase derived from Thermococcus guaymasensis” (priority 2008, dated 2013).

Usually Km stands for the substrate concentration at which the rate is half of its maximum. Usually kcat stands for the number of substrate molecules converted per active site and unit of time at saturation. A word on the kcat/Km: it is the second-order rate constant that governs catalysis at low substrate concentration.

In series [1] the target is T1, T. guaymasensis ADH (Thermococcus guaymasensis, UniProt F8S123). As to the kind of experiment: Substrate specificity, alcohol oxidation (standard enzyme assay). The series is classed as biochemical. Conditions: for Relative activity (alcohol oxidation): alcohols 50 mM, 100% = 2-butanol, 0.4 mM NADP^+, pH 10.5, 80° C. How it is done:
(§1) The purified enzyme (0.25 μg) initiated the enzyme assay. […] The protein concentrations of all samples were determined using the Bradford method and bovine serum albumin served as the standard protein (Bradford 1976).
(§2) The effect of pH on the enzyme activities was determined over a range of 5.5-11.4. The buffers (100 mM) used were phosphate (pH 5.5-8.0), EPPS (8.0-9.0), glycylglycine (9.0-9.7), and CAPS (9.7-11.4). The effect of the temperature on the enzyme activity was examined at temperatures from 30 to 95° C. Enzyme thermostability was determined by incubating the enzyme in sealed serum bottles at 80° C. and 95° C., respectively. Residual activity was assayed at various time intervals under the standard assay conditions. Substrate specificity was determined using primary and secondary alcohols (50 mM), diols and polyols (50 mM), or aldehydes and ketones (6 mM) under standard assay conditions.

Series [2] concerns the target T1, T. guaymasensis ADH. As to the kind of experiment: Stereoselective conversion between acetoin and 2,3-butanediol (chiral GC). The series is classed as biochemical. How it is done: All the reactions were carried out at 30° C. for 24 hours unless specified. After that, the reaction mixture (1 ml) was extracted with 1 ml ethyl acetate or dichloride methane with shaking on a Gyrotory water bath shaker model G76 (New Brunswick Scientific Co., INC., NJ, USA) at 350 rpm for 30 min (room temperature). The stereoselectivity of the purified enzyme was determined using the Shimadzu GC-14A gas chromatography equipped with a CP-Chirasil-Dex CB column (0.25 mm ID×25 m length, Varian Inc., Palo Alto, Calif., USA). The following GC operating conditions included the FID detector (250° C.) at a sensitivity range of 10 and helium as the carrier gas at a linear velocity of 40 cm s^−1. […] The reaction mixture after extraction (0.5 μl) was directly applied onto the injector (200° C.) for each assay. The peak areas were quantitated using specific external standards.

The target of series [3] is T1, T. guaymasensis ADH. The experiment in a line: Substrate specificity, aldehyde/ketone reduction (standard enzyme assay). Conditions: aldehydes or ketones 6 mM; 100% = 2-butanone; 0.2 mM NADPH, pH 7.5, 80° C. The series is classed as biochemical. How it is done: as §1, §2
Series [4] has as its system T. guaymasensis ADH. As to the kind of experiment: Effect of metal ions on enzyme activity (2-butanone reduction). It counts as biochemical, Thermococcus guaymasensis. Conditions: up to 100 μM in the assay mixture. How it is done: as §2
Metal ions were added in the enzyme assay mixture at a final concentration of 100 μM.

The test system of a further series is C[C@@H](O)[C@@H](C)O. As to the kind of experiment: purified protein, by the assay type. Conditions: other: co-substrate NADP^+ (0.4 mM); 80.0 °C.
The next series deals with C[C@H](O)[C@@H](C)O. The experiment in a line: purified protein, by the assay type. As to conditions: other: co-substrate NADP^+ (0.4 mM); 80.0 °C.
Series [5] can be described thus: Oxygen sensitivity (residual activity after exposure to air). It counts as physicochemical. As to conditions: exposed to air for a week. How it is done: The effect of oxygen on enzyme activity was investigated by exposing the enzyme samples in the air at room temperature and determining the residual activity after oxygen exposure. The exposure was performed in the presence or absence of DDT and SDT. The residual activities of each sample at different time intervals were tested parallelly under the standard assay conditions.

The nature of series [6]: ADH specific activity (spectrophotometric enzyme assay). It counts as biochemical. How it is done:
as §1
The reaction was initiated by adding enzymes.

Substrate in series [7]: CCC(C)=O
The experiment in a line: purified protein, by the assay type. As to conditions: other: co-substrate NADPH (0.2 mM); 80.0 °C.

Substrate in series [8]: CC(=O)C(C)=O
As to the kind of experiment: purified protein, by the assay type. Conditions: other: co-substrate NADPH (0.2 mM); 80.0 °C.

Substrate in series [9]: CC(=O)C(C)O
The experiment in a line: purified protein, by the assay type. It counts as biochemical, Thermococcus guaymasensis. As to conditions: other: co-substrate NADPH (0.2 mM); 80.0 °C.

[10] abbreviates: oxidation, 50 mM substrate, 500 mM acetone, 1 mM NADP^+, 30° C., 24 hours.

Entries after “also recorded” stand apart in the source; their conditions may differ. Where two headings read alike, the source gives them in different places. Marks after values point to notes of the source that are not given here. Bounds are passed on as bounds.

1-Propanol: on T. guaymasensis ADH [1], the “Relative activity (alcohol oxidation)” value amounted to 15.1 ± 0.3%. For `CC(=O)C(C)O` (racemic) [Acetoin], at T. guaymasensis ADH [1], the “Oxidation of the substrate by the enzyme (in words)” value (“Oxidation of the substrate” for short) was “could not oxidize; also recorded: cannot be oxidized”. For the same molecule, on T. guaymasensis ADH [2] (reduction, 50 mM substrate, 500 mM isopropanol, 1 mM NADPH, 30° C., 24 hours), the “ee of (2R,3R)-2,3-butanediol and meso-2,3-butanediol over (2S,3S)-(+)-2,3-butanediol” value is more than 99%. Moreover, the “Relative activity (aldehyde/ketone reduction)” value on T. guaymasensis ADH [3] is given as 93 ± 3.2%. Consider `CCC(O)CO` (stereo not shown) [1,2-Butanediol], for which the “Relative activity (alcohol oxidation)” value on T. guaymasensis ADH [1] was found to be 25.6 ± 2.3%.

In the case of `CCCC(O)CO` (stereo not shown) [1,2-Pentanediol], the “Relative activity (alcohol oxidation)” value on T. guaymasensis ADH [1] was 4.7 ± 0.3%.

As for `CC(O)CCO` (stereo not shown) [1,3-Butanediol], at T. guaymasensis ADH [1], the “Relative activity (alcohol oxidation)” value is recorded as 35.4 ± 1.1%. Turning to `CCCCO` [1-Butanol], on T. guaymasensis ADH [1], the “Relative activity (alcohol oxidation)” value is 5.1 ± 0.2%.

`CCCCCO` [1-Pentanol]: the “Relative activity (alcohol oxidation)” value at T. guaymasensis ADH [1] is given as 0.8 ± 0.2%.

For the molecule `CC(O)C(C)O` (stereo not shown) [2,3-Butanediol], on T. guaymasensis ADH [1], the “Relative activity (alcohol oxidation)” value worked out at 78.7 ± 3.4%. As for `CC(O)CC(C)O` (stereo not shown) [2,4-Pentanediol], the “Relative activity (alcohol oxidation)” value on T. guaymasensis ADH [1] came to 9.2 ± 0.1%. As to `CCC(C)O` (stereo not shown) [2-Butanol], the “Activity meant by relative activity of 100% in alcohol oxidation” value on T. guaymasensis ADH [1] (50 mM substrate) was “^aThe relative activity of 100% in alcohol oxidation means 1144 ± 24 U mg^−1”. The “Relative activity (alcohol oxidation)” value at T. guaymasensis ADH [1] was 100 ± 2.2^a %. Take `CCC(C)=O` [2-Butanone]: at T. guaymasensis ADH [2] (reduction to chiral 2-butanols), the “Stereoselectivity of the reduction (in words)” value is “no stereoselectivity”. Moreover, the “Relative activity (aldehyde/ketone reduction)” value on T. guaymasensis ADH [3] is on record as 100 ± 3.4^b %. In the case of `CCCC(C)O` (stereo not shown) [2-Pentanol], the “Relative activity (alcohol oxidation)” value on T. guaymasensis ADH [1] was 66.3%. As for `CCCC(C)=O` [2-Pentanone], on T. guaymasensis ADH [3], the “Relative activity (aldehyde/ketone reduction)” value is 86.2 ± 3.1%. Consider `CC(C)O` [2-Propanol], for which the “Relative activity (alcohol oxidation)” value on T. guaymasensis ADH [1] turned out to be 88 ± 1.1%. Consider `C[C@@H](O)[C@@H](C)O` [(2R,3R)-(−)-2,3-butanediol], for which the “Enantiomeric excess (ee) of product (3R)-acetoin” value at T. guaymasensis ADH [2] (setting [10]) was found to be 94%. For `CC=O` [Acetaldehyde], the “Relative activity (aldehyde/ketone reduction)” value at T. guaymasensis ADH [3] is given as 36 ± 4.2%. On the same count and under the same terms, as for `CC(C)=O` [Acetone], the figure is 149.4 ± 2.8%. On the same count and under the same terms, with `CCCC=O` [Butyraldehyde] the figure was 112.4 ± 11.9%.

Regarding `CC(=O)C(C)=O` [Diacetyl], the “Relative activity (aldehyde/ketone reduction)” value on T. guaymasensis ADH [3] is 134.8 ± 5.9%. `CCO` [Ethanol]: the “Relative activity (alcohol oxidation)” value at T. guaymasensis ADH [1] is on record as 5.7 ± 0.3%.

Take `OCC(O)CO` [Glycerol]: the “Relative activity (alcohol oxidation)” value at T. guaymasensis ADH [1] is reported as 0.2 ± 0.1%. On to `N[C@@H](CO)C(=O)O` [L-serine], for which the “Oxidation of the substrate” value at T. guaymasensis ADH [1] is “no activity; also recorded: did not catalyze”. For the molecule `C[C@@H](O)[C@H](N)C(=O)O` [L-threonine], the “Oxidation of the substrate” value at T. guaymasensis ADH [1] is “no activity; also recorded: did not catalyze”; at T. guaymasensis ADH [1] (listed as threonine) it was “did not catalyze”. With `CO` [Methanol], on T. guaymasensis ADH [1], the “Oxidation of the substrate” value is reported as “did not oxidize” and the “Relative activity (alcohol oxidation)” value is reported as 0%. In the case of `[Zn+2]` [Zn^2+], the “Effect on enzyme activity (butanol formation)” value was “inhibited” in the series with T. guaymasensis ADH [4] and “blocked” in the series with T. guaymasensis ADH [4] (listed as zinc). Consider `C[C@H](O)[C@@H](C)O` [meso-2,3-butanediol], for which the “Enantiomeric excess (ee) of product (3S)-acetoin” value at T. guaymasensis ADH [2] (setting [10]) came out at 88%.

In the case of “T. guaymasensis ADH (Thermococcus guaymasensis)”, in the series on C[C@@H](O)[C@@H](C)O, the Michaelis constant (Km) was found to be 15200 µM, the Vmax was 1110 µmol/min/mg, the catalytic constant (kcat) came out at 740 s⁻¹ and the catalytic efficiency (kcat/Km) is 49000 M⁻¹ s⁻¹. Moreover, in the series on C[C@H](O)[C@@H](C)O, the Km is 19300 µM, the Vmax stood at 1430 µmol/min/mg, the kcat is 952 s⁻¹ and the specificity constant (kcat/Km) is 49000 M⁻¹ s⁻¹.

B1: TgADH(C56S): TgADH mutant, serine for cysteine at position 56 (SEQ ID NO:10), expressed in E. coli Rosetta-2 (protein)
chain: MHHHHHHSSGLVPRGSGMKETAAAKFERQHMDSPDLGTDDDDKAMADIGSEFMSKMRGFAMVDFGKAEWIEKERPKPGPYDAIVKPIAVAPCTSDIHTVFEAAFPREMSEFPRILGHEAVGEVVEVGSHVKDFKPGDRVVVPAITPDWRTLDVQRGYHQHSGGMLAGWKFSNPLKEGGKDGVFAEYFHVNDADMNLAHLPDEIKPEVAVMATDMMTTGFHGAELADIPLGGTVAVIGIGPVGLMAVAGARLLGAGRIIAVGSRPVCVEAAKYYGATDIVNRREHPDIAGRILELTGGEGVDSVIIAGGNVDVMKTAVKIVKPGGTVANINYFGSGDYLPIPRIEWGQGMAHKTIKGGLCPGGRLRMERLLDLIKYGRVDPSRLITHKFKGFDKIPEALYLMKDKPKDLIKPVVIIEE
modifications: C56S with vector coding region
For B1, in series [5], the “Activity after exposure to air (in words)” value is “lost activity”. In addition, the “Enzyme activity compared with wild type TgADH (in words)” value in series [6] was “virtually no difference”.

B2: T. guaymasensis ADH (Thermococcus guaymasensis) (protein)
chain: SKMRGFAMVDFGKAEWIEKERPKPGPYDAIVKPIAVAPCTSDIHTVFEAAFPREMCEFPRILGHEAVGEVVEVGSHVKDFKPGDRVVVPAITPDWRTLDVQRGYHQHSGGMLAGWKFSNPLKEGGKDGVFAEYFHVNDADMNLAHLPDEIKPEVAVMATDMMTTGFHGAELADIPLGGTVAVIGIGPVGLMAVAGARLLGAGRIIAVGSRPVCVEAAKYYGATDIVNRREHPDIAGRILELTGGEGVDSVIIAGGNVDVMKTAVKIVKPGGTVANINYFGSGDYLPIPRIEWGQGMAHKTIKGGLCPGGRLRMERLLDLIKYGRVDPSRLITHKFKGFDKIPEALYLMKDKPKDLIKPVVIIEE
For the molecule B2, in series [7], the Km amounted to 310 µM, the Vmax was 285 U mg^−1, the kcat was 190 s⁻¹ and the kcat/Km was 613,000 s^−1M^−1. In addition, in [8], the Michaelis-Menten constant (Km) was determined as 210 µM, the Vmax was 303 µmol/min/mg, the kcat was found to be 202 s⁻¹ and the specificity constant (kcat/Km) amounted to 962000 M⁻¹ s⁻¹. Moreover, in series [9], the Michaelis-Menten constant (Km) was 320 µM, the Vmax turned out to be 213 µmol/min/mg, the catalytic constant (kcat) was 142 s⁻¹ and the kcat/Km turned out to be 444000 M⁻¹ s⁻¹.
